# Values joined by “and” are separate entries in the source; they are usually repeats but may differ in a detail not shown here. Equal entries are not always repeated. Toxic doses and inconclusive results are not listed.
# System: L1210 leukemia ip in BDF1 mice, survival T/C
# Assay: NCI In Vivo Anticancer Drug Screen. Data for tumor model L1210 Leukemia (intraperitoneal) in B6D2F1 (BDF1) mice
# Conditions: endpoint: mean survival time, higher = longer survival
# In short: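 Value reflects the ratio of survival in compound-treated mice to survival in vehicle-treated controls, with both groups carrying the same transplanted tumor.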
# [1] = dose: 100.0 mg/kg/injection, schedule: Q01DX009 (ip), vehicle: saline
# [2] = dose: 200.0 mg/kg/injection, schedule: Q01DX009 (ip), vehicle: saline
# [3] = dose: 100.0 mg/kg/injection, schedule: Q01DX009 (ip), vehicle: Klucel (hydroxypropylcellulose) (HPC)
# [4] = dose: 40.0 mg/kg/injection, schedule: Q01DX001 (ip), vehicle: carboxymethylcellulose (CMC)
# [5] = dose: 100.0 mg/kg/injection, schedule: Q01DX009 (ip), vehicle: saline with Tween-80
# [6] = dose: 200.0 mg/kg/injection, schedule: Q01DX009 (ip), vehicle: saline with Tween-80
# [7] = dose: 100.0 mg/kg/injection, schedule: Q04DX003 (ip), vehicle: saline with Tween-80
# [8] = dose: 200.0 mg/kg/injection, schedule: Q04DX003 (ip), vehicle: saline with Tween-80
# [9] = dose: 400.0 mg/kg/injection, schedule: Q04DX003 (ip), vehicle: saline with Tween-80
# [10] = dose: 50.0 mg/kg/injection, schedule: Q01DX001 (ip), vehicle: carboxymethylcellulose (CMC)
# [11] = dose: 100.0 mg/kg/injection, schedule: Q01DX001 (ip), vehicle: carboxymethylcellulose (CMC)
# [12] = dose: 200.0 mg/kg/injection, schedule: Q01DX001 (ip), vehicle: carboxymethylcellulose (CMC)
# [13] = dose: 400.0 mg/kg/injection, schedule: Q01DX001 (ip), vehicle: carboxymethylcellulose (CMC)
smiles,measurement,setting,value
CCCCC(CC)C1OCCS1 (centres undefined),T/C,[1],96 % of control
same,T/C,"dose: 100.0 mg/kg/injection, schedule: Q04DX002 (ip), vehicle: saline",96 % of control
same,T/C,[2],107 % of control
same,T/C,"dose: 200.0 mg/kg/injection, schedule: Q04DX002 (ip), vehicle: saline",92 % of control
same,T/C,"dose: 400.0 mg/kg/injection, schedule: Q01DX009 (ip), vehicle: saline",104 % of control
same,T/C,"dose: 400.0 mg/kg/injection, schedule: Q04DX002 (ip), vehicle: saline",99 % of control
CC/C=C(\C)C1(CC)C(=O)NC(=O)NC1=O,T/C,"dose: 75.0 mg/kg/injection, schedule: Q01DX001 (ip), vehicle: saline",102 % of control
same,T/C,"dose: 150.0 mg/kg/injection, schedule: Q01DX001 (ip), vehicle: saline",95 % of control
CCCNC(=O)Oc1cccc(C)c1,T/C,"dose: 100.0 mg/kg/injection, schedule: Q04DX002 (ip), vehicle: Klucel (hydroxypropylcellulose) (HPC)",100 % of control
same,T/C,"dose: 200.0 mg/kg/injection, schedule: Q04DX002 (ip), vehicle: Klucel (hydroxypropylcellulose) (HPC)",106 % of control
same,T/C,"dose: 400.0 mg/kg/injection, schedule: Q04DX002 (ip), vehicle: Klucel (hydroxypropylcellulose) (HPC)",110 % of control
COc1cc2c(cc1OC)C1CCN3CCCC3N1CC2 (centres undefined),T/C,"dose: 25.0 mg/kg/injection, schedule: Q01DX009 (ip), vehicle: Klucel (hydroxypropylcellulose) (HPC)",102 % of control
same,T/C,"dose: 50.0 mg/kg/injection, schedule: Q01DX009 (ip), vehicle: Klucel (hydroxypropylcellulose) (HPC)",96 % of control
same,T/C,[3],98 % of control
same,T/C,"dose: 100.0 mg/kg/injection, schedule: Q04DX003 (ip), vehicle: Klucel (hydroxypropylcellulose) (HPC)",96 % of control
CC[n+]1ccc(-c2ccc(NC(=O)c3ccc(C(=O)Nc4ccc(-c5cc[n+](CC)cc5)cc4)cc3)cc2)cc1,T/C,"dose: 2.5 mg/kg/injection, schedule: Q01DX015 (ip), vehicle: carboxymethylcellulose (CMC)",224 % of control
same,T/C,"dose: 3.7 mg/kg/injection, schedule: Q01DX001 (ip), vehicle: carboxymethylcellulose (CMC)",118 % of control
same,T/C,"dose: 5.0 mg/kg/injection, schedule: Q01DX015 (ip), vehicle: carboxymethylcellulose (CMC)",157 % of control
same,T/C,"dose: 7.5 mg/kg/injection, schedule: Q01DX001 (ip), vehicle: carboxymethylcellulose (CMC)",176 % of control
same,T/C,"dose: 10.0 mg/kg/injection, schedule: Q01DX015 (ip), vehicle: carboxymethylcellulose (CMC)",123 % of control
same,T/C,"dose: 15.0 mg/kg/injection, schedule: Q01DX001 (ip), vehicle: carboxymethylcellulose (CMC)",163 % of control
same,T/C,"dose: 20.0 mg/kg/injection, schedule: Q01DX015 (ip), vehicle: carboxymethylcellulose (CMC)",94 % of control
same,T/C,"dose: 30.0 mg/kg/injection, schedule: Q01DX001 (ip), vehicle: carboxymethylcellulose (CMC)",177 % of control and 194 % of control
same,T/C,"dose: 30.0 mg/kg/injection, schedule: Q01DX015 (ip), vehicle: carboxymethylcellulose (CMC)",86 % of control
same,T/C,[4],192 % of control and 296 % of control
same,T/C,"dose: 60.0 mg/kg/injection, schedule: Q01DX001 (ip), vehicle: carboxymethylcellulose (CMC)",211 % of control and 305 % of control and 307 % of control
same,T/C,"dose: 90.0 mg/kg/injection, schedule: Q01DX001 (ip), vehicle: carboxymethylcellulose (CMC)",157 % of control and 228 % of control
same,T/C,"dose: 150.0 mg/kg/injection, schedule: Q01DX001 (ip), vehicle: carboxymethylcellulose (CMC)",103 % of control
same,T/C,"dose: 225.0 mg/kg/injection, schedule: Q01DX001 (ip), vehicle: carboxymethylcellulose (CMC)",91 % of control
FC1(F)SC2c3cccc4cccc(c34)C2C1(F)F (centres undefined),T/C,[5],102 % of control
same,T/C,[6],104 % of control
same,T/C,"dose: 400.0 mg/kg/injection, schedule: Q01DX009 (ip), vehicle: saline with Tween-80",96 % of control
Cc1cc(-c2cc(C)c(O)c(C(C)(C)C)c2)cc(C(C)(C)C)c1O,T/C,"dose: 25.0 mg/kg/injection, schedule: Q04DX002 (ip), vehicle: gum acacia",95 % of control
same,T/C,"dose: 50.0 mg/kg/injection, schedule: Q04DX002 (ip), vehicle: gum acacia",95 % of control
same,T/C,"dose: 100.0 mg/kg/injection, schedule: Q04DX002 (ip), vehicle: gum acacia",91 % of control
Cc1cccc(OS(C)(=O)=O)c1N(S(C)(=O)=O)S(C)(=O)=O,T/C,"dose: 50.0 mg/kg/injection, schedule: Q01DX001 (ip), vehicle: Klucel (hydroxypropylcellulose) (HPC)",97 % of control
same,T/C,"dose: 100.0 mg/kg/injection, schedule: Q01DX001 (ip), vehicle: Klucel (hydroxypropylcellulose) (HPC)",108 % of control
same,T/C,"dose: 200.0 mg/kg/injection, schedule: Q01DX001 (ip), vehicle: Klucel (hydroxypropylcellulose) (HPC)",95 % of control
same,T/C,"dose: 400.0 mg/kg/injection, schedule: Q01DX001 (ip), vehicle: Klucel (hydroxypropylcellulose) (HPC)",95 % of control
Nc1ccc([N+](=O)[O-])cc1C(O)(C(F)(F)F)C(F)(F)F (tested in a mixture with another compound),T/C,[5],101 % of control
same,T/C,[7],101 % of control
same,T/C,[6],94 % of control
same,T/C,[8],100 % of control
same,T/C,[9],97 % of control
O=c1[nH]c(=O)c2cc3ccccc3nc2[nH]1,T/C,[10],97 % of control
same,T/C,[11],101 % of control
same,T/C,[12],95 % of control
same,T/C,[13],97 % of control
Nc1ccn(C2SC(CO)C(O)C2O)c(=O)n1 (centres undefined),T/C,"dose: 50.0 mg/kg/injection, schedule: Q01DX001 (ip), vehicle: saline",100 % of control
same,T/C,"dose: 100.0 mg/kg/injection, schedule: Q01DX001 (ip), vehicle: saline",105 % of control
same,T/C,"dose: 200.0 mg/kg/injection, schedule: Q01DX001 (ip), vehicle: saline",100 % of control
same,T/C,"dose: 400.0 mg/kg/injection, schedule: Q01DX001 (ip), vehicle: saline",92 % of control
COc1ccc(C(C#N)=C2C=CC(=NO)C=C2)cc1,T/C,[5],94 % of control
CC1(C)CCC(NC(=O)N(CCF)N=O)CC1,T/C,"dose: 9.0 mg/kg/injection, schedule: Q01DX001 (ip), vehicle: other",115 % of control
same,T/C,"dose: 13.0 mg/kg/injection, schedule: Q01DX001 (ip), vehicle: other",122 % of control
same,T/C,"dose: 37.0 mg/kg/injection, schedule: Q01DX001 (ip), vehicle: other",188 % of control
same,T/C,"dose: 50.0 mg/kg/injection, schedule: Q01DX001 (ip), vehicle: other",352 % of control
same,T/C,"dose: 75.0 mg/kg/injection, schedule: Q01DX001 (ip), vehicle: other",352 % of control
Cc1ccc(OC(=O)Nc2ccc(C(=O)O)c(O)c2)cc1,T/C,[1],96 % of control
same,T/C,"dose: 100.0 mg/kg/injection, schedule: Q04DX003 (ip), vehicle: saline",96 % of control
same,T/C,[2],89 % of control
same,T/C,"dose: 200.0 mg/kg/injection, schedule: Q04DX003 (ip), vehicle: saline",93 % of control
same,T/C,"dose: 400.0 mg/kg/injection, schedule: Q04DX003 (ip), vehicle: saline",95 % of control
O=C(O)/C(=C\c1cc2c(cc1[N+](=O)[O-])OCO2)c1cc2c(cc1Br)OCO2,T/C,[10],97 % of control
same,T/C,[11],100 % of control
same,T/C,[12],103 % of control
same,T/C,[13],92 % of control
CC(CC#N)c1ccc[nH]1 (centres undefined),T/C,"dose: 5.0 mg/kg/injection, schedule: Q01DX001 (ip), vehicle: carboxymethylcellulose (CMC)",115 % of control
same,T/C,"dose: 10.0 mg/kg/injection, schedule: Q01DX001 (ip), vehicle: carboxymethylcellulose (CMC)",111 % of control
same,T/C,"dose: 20.0 mg/kg/injection, schedule: Q01DX001 (ip), vehicle: carboxymethylcellulose (CMC)",117 % of control
same,T/C,[4],113 % of control
same,T/C,[10],109 % of control
same,T/C,"dose: 80.0 mg/kg/injection, schedule: Q01DX001 (ip), vehicle: carboxymethylcellulose (CMC)",96 % of control
same,T/C,[11],102 % of control
same,T/C,[12],107 % of control
C/C=C1/C[C@@H](C)[C@@](C)(O)C(=O)OCC2=CC[N+]3([O-])CC[C@@H](OC1=O)[C@@H]23 (some centres undefined),T/C,"dose: 20.0 mg/kg/injection, schedule: Q01DX015 (ip), vehicle: saline",98 % of control
same,T/C,"dose: 30.0 mg/kg/injection, schedule: Q01DX015 (ip), vehicle: saline",96 % of control
same,T/C,"dose: 40.0 mg/kg/injection, schedule: Q01DX015 (ip), vehicle: saline",102 % of control
COc1ccc(OC)c(NC(=O)c2ccc(F)cc2)c1,T/C,[3],98 % of control
same,T/C,"dose: 200.0 mg/kg/injection, schedule: Q01DX009 (ip), vehicle: Klucel (hydroxypropylcellulose) (HPC)",107 % of control
same,T/C,"dose: 400.0 mg/kg/injection, schedule: Q01DX009 (ip), vehicle: Klucel (hydroxypropylcellulose) (HPC)",96 % of control
CCCCCC/C=C/C(=O)OCC,T/C,[7],96 % of control
same,T/C,[8],101 % of control
same,T/C,[9],101 % of control
